Laboratory results: patent US6727254B2 (Schering Corporation, priority 2001, dated 2004)
pKi: −log10 of the molar value.

These molecules were tested against T1, ORL-1 receptor (Homo sapiens, UniProt P41146) (assay: Nociceptin binding assay). Conditions: CHO cell membrane preparation expressing the ORL-1 receptor; [125I][Tyr14]nociceptin.
T1 construct: expressed in transfected cells; host or cells: CHO cells (membrane preparation)
T1 sequence (P41146 whole entry): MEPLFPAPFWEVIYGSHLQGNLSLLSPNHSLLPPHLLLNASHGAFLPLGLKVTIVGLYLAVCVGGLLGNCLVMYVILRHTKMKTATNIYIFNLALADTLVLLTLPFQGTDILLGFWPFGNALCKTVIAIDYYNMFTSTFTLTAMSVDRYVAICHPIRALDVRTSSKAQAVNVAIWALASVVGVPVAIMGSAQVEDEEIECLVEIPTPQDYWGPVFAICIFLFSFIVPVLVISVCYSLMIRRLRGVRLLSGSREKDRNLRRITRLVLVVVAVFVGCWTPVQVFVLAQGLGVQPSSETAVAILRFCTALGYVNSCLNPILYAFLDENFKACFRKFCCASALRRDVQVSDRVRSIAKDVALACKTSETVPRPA
Experimental: CHO cell membrane preparation expressing the ORL-1 receptor (2 mg) was incubated with varying concentrations of [^125I][Tyr ^14]nociceptin (3-500 pM) in a buffer containing 50 mM HEPES (pH7.4), 10 mM NaCl, 1 mM MgCl2, 2.5 mM CaCl2, 1 mg/ml bovine serum albumin and 0.025% bacitracin. In a number of studies, assays were carried out in buffer 50 mM tris-HCl (pH 7.4), 1 mg/ml bovine serum albumin and 0.025% bacitracin. Samples were incubated for 1 h at room temperature (22° C.). Radiolabelled ligand bound to the membrane was harvested over GF/B filters presoaked in 0.1% polyethyleneimine using a Brandell cell harvester and washed five times with 5 ml cold distilled water. Nonspecific binding was determined in parallel by similar assays performed in the presence of 1 μM nociceptin. All assay points were performed in duplicates of total and non-specific binding.
Calculations of Ki were made using methods well known in the art.
`CCc1cnc(C2(O)CC3CCC(C2)N3C(c2ccccc2Cl)c2ccccc2Cl)nc1` (centres unmarked) [Example 2, 8-[Bis(2-chlorophenyl)methyl]-3-(5-ethyl-2-pyrimidinyl)-8-azabicyclo[3.2.1]octan-3-ol] showed a pKi of 8.12. Work on `OC1(c2nccc(N3CCNCC3)n2)CC2CCC(C1)N2C(c1ccccc1Cl)c1ccccc1Cl` (centres unmarked) [Example 3, 8-[Bis(2-chlorophenyl)methyl]-3-[4-(1-piperazinyl)-2-pyrimidinyl]-8-azabicyclo[3.2.1]octan-3-ol] yielded a pKi of 8.40. `OC1(c2ccccn2)CC2CCC(C1)N2C(c1ccccc1Cl)c1ccccc1Cl` (centres unmarked) [Example 4, 8-[Bis(2-Chlorophenyl)methyl]-3-(2-pyridinyl)-8-azabicyclo[3.2.1]octan-3-ol] was tested, and the pKi was 8.40. Work on `COC1(c2ncccn2)CC2CCC(C1)N2C(c1ccccc1Cl)c1ccccc1Cl` (centres unmarked) [Example 6, 8-[Bis(2-chlorophenyl)methyl]-3-methoxy-3-(2-pyrimidinyl)-8-azabcyclo[3.2.1]octane] yielded a pKi of 8.27. In the case of `Cn1nccc1C1(O)CC2CCC(C1)N2C(c1ccccc1Cl)c1ccccc1Cl` (centres unmarked) [Example 8, 8-[Bis(2-chlorophenyl)methyl]-3-(1-methyl-pyrazol-5-yl)-8-azabicyclo[3.2.1]octan-3-ol], the pKi was 8.22. In the case of `OC1(c2cccnn2)CC2CCC(C1)N2C(c1ccccc1Cl)c1ccccc1Cl` (centres unmarked) [Example 11, 8-[Bis(2-chlorophenyl)methyl]-3-(3-pyridazinyl)-8-azabicyclo[3.2.1]octan-3-ol], the pKi was 8.15. Work on `OC1(c2cnccn2)CC2CCC(C1)N2C(c1ccccc1Cl)c1ccccc1Cl` (centres unmarked) [Example 12, 8-[Bis(2-chlorophenyl)methyl]-3-(2-pyrazinyl)-8-azabicyclo[3.2.1]octan-3-ol] yielded a pKi of 8.70. `OC1(c2ccc(Br)cn2)CC2CCC(C1)N2C(c1ccccc1Cl)c1ccccc1Cl` (centres unmarked) [Example 14, 8-[Bis(2-chlorophenyl)methyl]-3-(5-bromo-2-pyridinyl)-8-azabicyclo[3.2.1]octan-3-ol] gave a pKi of 8.89.
